# Results taken from ChEMBL document CHEMBL1125092, “Nonneurotoxic tetralin and indan analogues of 3,4-(methylenedioxy)amphetamine (MDA)” (J Med Chem, 1990).
# Experiments:
# [1] = test system: Rattus norvegicus; experiment: Hallucinogenic property was determined in groups of LSD trained rats and percentage of animals disrupted was reported at a dose 1.17 (umol/kg),(number of animals = 10); format: functional
# [2] = test system: Rattus norvegicus; experiment: Hallucinogenic property was determined in groups of LSD trained rats and percentage of animals disrupted was reported at a dose 18.72 (umol/kg),(number of animals = 5); format: functional
# [3] = test system: Rattus norvegicus; experiment: Hallucinogenic property was determined in groups of LSD trained rats and percentage of animals disrupted was reported at a dose 9.36 (umol/kg),(number of animals = 10); format: functional
# [4] = test system: Rattus norvegicus; experiment: Hallucinogenic property was determined in groups of MDMA trained rats and percentage of animals disrupted was reported at 18.72 (umol/kg),(number of animals = 5); format: functional
# [5] = test system: Rattus norvegicus; experiment: Hallucinogenic property was determined in groups of MDMA trained rats and percentage of animals disrupted was reported at 28.08 (umol/kg),(number of animals = 4); format: functional
# [6] = test system: Rattus norvegicus; experiment: Hallucinogenic property was determined in groups of MDMA trained rats and percentage of animals disrupted was reported at a dose 1.17 (umol/kg), (number of animals =6); format: functional
# [7] = test system: Rattus norvegicus; experiment: Hallucinogenic property was determined in groups of MDMA trained rats and percentage of animals disrupted was reported at a dose 2.34 (umol/kg), (number of animals = 8); format: functional
# [8] = test system: Rattus norvegicus; experiment: Hallucinogenic property was determined in groups of MDMA trained rats and percentage of animals disrupted was reported at a dose 4.68 (umol/kg), (number of animals = 10); format: functional
# [9] = test system: Rattus norvegicus; experiment: Hallucinogenic property was determined in groups of MDMA trained rats and percentage of animals disrupted was reported at a dose 9.36 (umol/kg), (number of animals = 9); format: functional
# [10] = test system: Rattus norvegicus; experiment: Hallucinogenic property was determined in groups of LSD trained rats and percentage of animals disrupted was reported at a dose 4.68 (umol/kg),(number of animals = 10); format: functional
# [11] = test system: Rattus norvegicus; experiment: Hallucinogenic property was determined in groups of LSD trained rats and percentage of animals disrupted was reported at 2.34 (umol/kg),(number of animals = 13); format: functional
# [12] = test system: Rattus norvegicus; experiment: Tested for stimulus generation in rats trained to discriminate LSD from saline at a dose 1.17 (umol/kg),(number of animals = 10); format: functional
# [13] = test system: Rattus norvegicus; experiment: Tested for stimulus generation in rats trained to discriminate LSD from saline at a dose 2.34 (umol/kg),(number of animals = 13); format: functional
# [14] = test system: Rattus norvegicus; experiment: Tested for stimulus generation in rats trained to discriminate +/-MDMA from saline at 9.36 (umol/kg), (number of animals = 9); format: functional
# [15] = test system: Rattus norvegicus; experiment: Tested for stimulus generation in rats trained to discriminate LSD from saline at a dose 4.68 (umol/kg),(number of animals = 10); format: functional
# [16] = test system: Rattus norvegicus; experiment: Tested for stimulus generation in rats trained to discriminate +/-MDMA from saline at 1.17 (umol/kg), (number of animals = 6); format: functional
# [17] = test system: Rattus norvegicus; experiment: Tested for stimulus generation in rats trained to discriminate +/-MDMA from saline at 4.68 (umol/kg), (number of animals = 10); format: functional
# [18] = test system: Rattus norvegicus; experiment: Tested for disruption in more than 50% rats trained to discriminate LSD from saline at a dose 18.72 (umol/kg) (no. of animals =5); format: functional
# [19] = test system: Rattus norvegicus; experiment: Tested for stimulus generation in rats trained to discriminate LSD from saline at a dose 9.36 (umol/kg), (number of animals = 10); format: functional
# [20] = test system: Rattus norvegicus; experiment: Tested for stimulus generation in rats trained to discriminate +/-MDMA from saline at 18.72 (umol/kg),(number of animals = 5); format: functional
# [21] = test system: Rattus norvegicus; experiment: Tested for stimulus generation in rats trained to discriminate +/-MDMA from saline at 2.34 (umol/kg), (number of animals = 8); format: functional
# [22] = species: Rattus norvegicus; experiment: Compounds were evaluated for binding of [3H]paroxetine to rat brain cortical homogenate and number of binding sites (Bmax) for serotonin; format: tissue-based
# [23] = Binding affinity was determined towards serotonin uptake site in presence of [3H]paroxetine radioligand in rat brain cortical homogenate; format: tissue-based
# [24] = Binding affinity was determined towards serotonin uptake site in presence of [3H]paroxetine radioligand in rat hippocampal homogenate; format: tissue-based, Hippocampus
# [25] = species: Rattus norvegicus; experiment: Compounds were evaluated for binding of [3H]paroxetine to rat hippocampal homogenate and number of binding sites (Bmax) for serotonin; format: tissue-based; conditions: Hippocampus
# [26] = test system: Rattus norvegicus; experiment: Hallucinogenic property was determined in groups of LSD trained rats and percentage of animals disrupted was reported at a dose 13.18 (umol/kg),(number of animals = 15); format: functional
# [27] = test system: Rattus norvegicus; experiment: Hallucinogenic property was determined in groups of LSD trained rats and percentage of animals disrupted was reported at a dose 17.57(umol/kg), (number of animals =21); format: functional
# [28] = test system: Rattus norvegicus; experiment: Hallucinogenic property was determined in groups of LSD trained rats and percentage of animals disrupted was reported at a dose 2.2 (umol/kg), (number of animals = 15); format: functional
# [29] = test system: Rattus norvegicus; experiment: Hallucinogenic property was determined in groups of MDMA trained rats and percentage of animals disrupted was reported at a dose 17.57(umol/kg), (number of animals =11); format: functional
# [30] = test system: Rattus norvegicus; experiment: Hallucinogenic property was determined in groups of MDMA trained rats and percentage of animals disrupted was reported at a dose 2.2 (umol/kg), (number of animals =9); format: functional
# [31] = test system: Rattus norvegicus; experiment: Hallucinogenic property was determined in groups of MDMA trained rats and percentage of animals disrupted was reported at a dose 4.39 (umol/kg),(number of animals = 9); format: functional
# [32] = test system: Rattus norvegicus; experiment: Hallucinogenic property was determined in groups of MDMA trained rats and percentage of animals disrupted was reported at a dose 8.78 (umol/kg), (number of animals = 8); format: functional
# [33] = test system: Rattus norvegicus; experiment: Hallucinogenic property was determined in groups of LSD trained rats and percentage of animals disrupted was reported at a dose 8.78 (umol/kg), (number of animals = 16); format: functional
# [34] = test system: Rattus norvegicus; experiment: Hallucinogenic property was determined in groups of LSD trained rats and percentage of animals disrupted was reported at 4.39 (umol/kg),(number of animals =11); format: functional
# [35] = test system: Rattus norvegicus; experiment: Monoamine levels in at hippocampus were evaluated after subcutaneous administration of 40 mg/kg for NE; format: functional
# [36] = test system: Rattus norvegicus; experiment: Monoamine levels in rat brain were evaluated after subcutaneous administration of 40 mg/kg for 5-HIAA; format: functional
# [37] = test system: Rattus norvegicus; experiment: Monoamine levels in rat brain were evaluated after subcutaneous administration of 40 mg/kg for 5-HT; format: functional
# [38] = test system: Rattus norvegicus; experiment: Monoamine levels in rat brain were evaluated after subcutaneous administration of 40 mg/kg for DA; format: functional
# [39] = test system: Rattus norvegicus; experiment: Monoamine levels in rat brain were evaluated after subcutaneous administration of 40 mg/kg for DOPAC; format: functional
# [40] = test system: Rattus norvegicus; experiment: Monoamine levels in rat brain were evaluated after subcutaneous administration of 40 mg/kg for HVA; format: functional
# [41] = test system: Rattus norvegicus; experiment: Monoamine levels in rat hippocampus were evaluated after subcutaneous administration of 40 mg/kg for 5-HIAA; format: functional
# [42] = test system: Rattus norvegicus; experiment: Monoamine levels in rat hippocampus were evaluated after subcutaneous administration of 40 mg/kg for 5-HT; format: functional
# [43] = test system: Rattus norvegicus; experiment: Tested for stimulus generation in rats trained to discriminate LSD from saline at a dose 2.2 (umol/kg), (number of animals = 15); format: functional
# [44] = test system: Rattus norvegicus; experiment: Tested for stimulus generation in rats trained to discriminate +/-MDMA from saline at 17.57 (umol/kg), (number of animals =11); format: functional
# [45] = test system: Rattus norvegicus; experiment: Tested for stimulus generation in rats trained to discriminate LSD from saline at a dose 4.39 (umol/kg),(number of animals =11); format: functional
# [46] = test system: Rattus norvegicus; experiment: Tested for stimulus generation in rats trained to discriminate +/-MDMA from saline at 8.78 (umol/kg), (number of animals = 8); format: functional
# [47] = test system: Rattus norvegicus; experiment: Tested for stimulus generation in rats trained to discriminate LSD from saline at a dose 8.78 (umol/kg), (number of animals = 16); format: functional
# [48] = test system: Rattus norvegicus; experiment: Tested for stimulus generation in rats trained to discriminate +/-MDMA from saline at 2.2 (umol/kg), (number of animals =9); format: functional
# [49] = test system: Rattus norvegicus; experiment: Tested for stimulus generation in rats trained to discriminate +/-MDMA from saline at 4.39 (umol/kg),(number of animals = 9); format: functional
# [50] = test system: Rattus norvegicus; experiment: Monoamine levels in rat brain were evaluated after subcutaneous administration of 40 mg/kg for NE; format: functional
compound,measurement,setting,value
NC1Cc2ccc3c(c2C1)OCO3 (stereo not given),D,[1],20%
same,D,[2],100%
same,D,[3],20%
same,D,[4],0%
same,D,[5],50%
same,D,[6],0%
same,D,[7],13%
same,D,[8],20%
same,D,[9],11%
same,D,[10],20%
same,D,[11],44%
same,SDL,[12],38%
same,SDL,[13],25%
same,SDL,[14],25%
same,SDL,[15],13%
same,SDL,[16],0%
same,SDL,[17],13%
same,SDL,[18],0%
same,SDL,[19],25%
same,SDL,[20],0%
same,SDL,[21],29%
NC1CCc2cc3c(cc2C1)OCO3 (stereo not given),Bmax,[22],964 fM/g
same,Kd,[23],0.102 nM
same,Kd,[24],0.118 nM
same,Bmax,[25],778 fM/g
same,D,[26],67%
same,D,[27],64%
same,D,[28],47%
same,D,[29],27%
same,D,[30],11%
same,D,[31],11%
same,D,[32],0%
same,D,[33],50%
same,D,[34],27%
same,Monoamine level,[35],484 pg/mg
same,Monoamine level,[36],370 pg/mg
same,Monoamine level,[37],356 pg/mg
same,Monoamine level,[38],151 pg/mg
same,Monoamine level,[39],213 pg/mg
same,Monoamine level,[40],262 pg/mg
same,Monoamine level,[41],549 pg/mg
same,Monoamine level,[42],256 pg/mg
same,SDL,[43],25%
same,SDL,[44],88%
same,SDL,[45],38%
same,SDL,[46],63%
same,SDL,[47],63%
same,SDL,[48],13%
same,SDL,[49],50%
same,Monoamine level,[50],367 pg/mg
